# System: Caco-2 cells
# Test: in vitro Caco-2 cell bioassay of iron bioavailability (ferritin formation)
# Format: cell-based
# Settings: for effect on iron bioavailability: same testing conditions as avenanthramide 2c (FIG. 1)
# Method: FIG. 1 is a graph illustrating the results of in vitro tests that were performed in order to predict the effect that avenanthramide 2c, avenanthramide 2p, and avenanthramide 2f would have on iron bioabsorption in humans. Specifically, an in vitro Caco-2 cell bioassay was used that accurately predicts how a compound will influence iron bioabsorption in humans. In these cells, the intracellular iron storage protein known as ferritin forms in direct proportion to cell iron uptake.
# […] The ferric chloride solution is administered to the cells by itself (as a control) and along with the compound(s) being tested to assess their effect iron bioavailability, as measured by the amount of ferritin formed in the cells—a sensitive and accurate measurement of cell iron uptake. The test protocol measures the total weight of cell protein and the total weight of ferritin produced by the cells in order to generate a weight ratio of ferritin to cell protein (in units of ng ferritin formed per mg cell protein). The ratios from the test samples are compared against a control sample wherein only ferric chloride is administered to the cells. Test samples with higher ferritin values (ng ferritin/mg cell protein) compared to the control indicate improvement or enhancement of iron bioavailability, whereas test samples with ferritin values approximately equal to (or within the margin of error) or less than the control indicates no effect on iron bioavailability or inhibition of iron bioavailability, respectively.
Compound,"iron bioavailability (ferritin formation) compared with control (5 μM avenanthramide with 10 μM ferric chloride, control = ferric chloride only)",ferritin formation relative to control (20 μM avenanthramide with 10 μM ferric chloride),"ferritin formation, increase over the 5 μM sample (20 μM avenanthramide with 10 μM ferric chloride, relative to 5 μM sample)",ferritin value compared with control and lower concentrations (30 μM avenanthramide with 10 μM ferric chloride),effect on iron bioavailability
"O=C(/C=C/c1ccc(O)c(O)c1)Nc1ccc(O)cc1C(=O)O [avenanthramide 2c, 2-[[(E)-3-(3,4-dihydroxyphenyl)prop-2-enoyl]amino]-5-hydroxybenzoic acid]",more than double the control value,more than 3.5 times the control value,more than 1.5 factor,"still above the values measured at 10 μM and 5 μM, and well above control",
"COc1cc(/C=C/C(=O)Nc2ccc(O)cc2C(=O)O)ccc1O [avenanthramide 2f, 5-hydroxy-2-[[(E)-3-(4-hydroxy-3-methoxyphenyl)prop-2-enoyl]amino]benzoic acid, reference compound]",,,,,negligible or zero effect
"O=C(/C=C/c1ccc(O)cc1)Nc1ccc(O)cc1C(=O)O [avenanthramide 2p, 5-hydroxy-2-[[(E)-3-(4-hydroxyphenyl)prop-2-enoyl]amino]benzoic acid, reference compound]",,,,,negligible or zero effect

# Source: patent US20190350887A1, “INCREASING BIOAVAILABILITY OF IRON WITH AVENANTHRAMIDE 2c” (priority 2018, published 2019)
